Experimental data published in patent US20230024096A1, “BIFUNCTIONAL COMPOUNDS FOR THE TREATMENT OF CANCER” (Hoffmann-La Roche Inc., priority 2019, published 2023).

Target: T1, SMARCA2 (Homo sapiens, UniProt P51531)
T1 construct: endogenous in cells; host or cells: HT1080 (CRISPR HiBiT knock-in clone, generated in house)
Assay: SMARCA2 HiBiT degradation assay (cellular)
Format: cell-based
Details: table head names A549; for DC50: 6 h incubation, HiBiT-tagged SMARCA2, luminescence read-out, read-out: HiBit A549 SMARCA2 IP (nM) 6 h; for Emax: A549, 6 h incubation, Emax = amount of residual protein remaining in the cell following compound treatment

T1 sequence (P51531 whole entry): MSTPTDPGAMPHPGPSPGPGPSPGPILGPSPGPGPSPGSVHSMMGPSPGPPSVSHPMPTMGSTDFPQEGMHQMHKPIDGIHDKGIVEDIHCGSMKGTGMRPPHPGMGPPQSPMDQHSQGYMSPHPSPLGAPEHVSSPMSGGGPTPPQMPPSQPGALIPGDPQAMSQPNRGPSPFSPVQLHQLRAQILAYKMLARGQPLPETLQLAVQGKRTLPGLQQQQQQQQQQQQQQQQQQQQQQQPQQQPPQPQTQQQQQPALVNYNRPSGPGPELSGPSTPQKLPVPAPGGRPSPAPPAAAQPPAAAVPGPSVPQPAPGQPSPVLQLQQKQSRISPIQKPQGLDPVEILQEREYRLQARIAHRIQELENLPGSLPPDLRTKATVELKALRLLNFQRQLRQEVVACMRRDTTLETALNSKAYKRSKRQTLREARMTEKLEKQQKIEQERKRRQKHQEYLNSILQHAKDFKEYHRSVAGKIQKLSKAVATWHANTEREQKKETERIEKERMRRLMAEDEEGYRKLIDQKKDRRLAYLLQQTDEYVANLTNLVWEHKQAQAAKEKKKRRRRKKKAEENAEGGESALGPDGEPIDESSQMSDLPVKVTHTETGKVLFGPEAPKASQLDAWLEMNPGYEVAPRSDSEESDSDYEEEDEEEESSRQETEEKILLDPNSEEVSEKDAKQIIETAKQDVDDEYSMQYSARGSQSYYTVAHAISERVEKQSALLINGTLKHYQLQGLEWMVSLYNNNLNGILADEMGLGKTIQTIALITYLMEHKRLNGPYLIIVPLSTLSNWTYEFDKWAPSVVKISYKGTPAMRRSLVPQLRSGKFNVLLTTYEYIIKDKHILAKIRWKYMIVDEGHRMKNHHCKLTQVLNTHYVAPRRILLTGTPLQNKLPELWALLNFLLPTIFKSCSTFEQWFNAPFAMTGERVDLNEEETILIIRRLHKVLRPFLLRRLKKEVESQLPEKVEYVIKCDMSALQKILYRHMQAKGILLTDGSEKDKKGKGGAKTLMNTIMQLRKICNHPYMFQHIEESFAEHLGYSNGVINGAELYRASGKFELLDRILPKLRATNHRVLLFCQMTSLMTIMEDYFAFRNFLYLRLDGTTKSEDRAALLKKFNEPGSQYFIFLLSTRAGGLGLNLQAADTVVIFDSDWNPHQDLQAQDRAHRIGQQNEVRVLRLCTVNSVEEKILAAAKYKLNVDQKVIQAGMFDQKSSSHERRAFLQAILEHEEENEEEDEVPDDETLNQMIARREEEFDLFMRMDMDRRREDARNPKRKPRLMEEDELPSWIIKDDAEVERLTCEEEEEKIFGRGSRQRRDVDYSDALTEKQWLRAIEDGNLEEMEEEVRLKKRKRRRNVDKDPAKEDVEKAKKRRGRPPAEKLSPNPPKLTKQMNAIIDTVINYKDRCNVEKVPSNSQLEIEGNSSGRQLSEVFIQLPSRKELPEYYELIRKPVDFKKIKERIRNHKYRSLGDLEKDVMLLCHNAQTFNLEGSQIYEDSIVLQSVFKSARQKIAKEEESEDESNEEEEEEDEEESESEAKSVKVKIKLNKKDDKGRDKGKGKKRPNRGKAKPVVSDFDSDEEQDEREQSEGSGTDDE

Row | SMILES | DC50 [nM] | Emax [%]
1 | Nc1nnc(-c2ccccc2O)cc1N1CC2CCC(C1)N2c1cccc(CN2CCC(C(=O)NC3CN(c4ccc5c(c4)C(=O)N(C4CCC(=O)NC4=O)C5=O)C3)CC2)c1 (racemic) [Example 134, rac-1-[[3-[3-[3-amino-6-(2-hydroxyphenyl)pyridazin-4-yl]-3,8-diazabicyclo[3.2.1]octan-8-yl]phenyl]methyl]-N-[1-[2-(2,6-dioxo-3-piperidyl)-1,3-dioxo-isoindolin-5-yl]azetidin-3-yl]piperidine-4-carboxamide] | 31 | 36
2 | Nc1nnc(-c2ccccc2O)cc1O[C@H]1CCCN(c2ccc(N3CCN(CCCCC(=O)N4CCC(Cn5cc(COc6cccc7c6C(=O)N(C6CCC(=O)NC6=O)C7=O)nn5)CC4)CC3)cc2)C1 (mixture of isomers) [Example 135, 2-(2,6-dioxo-3-piperidyl)-4-[[1-[[1-[5-[4-[4-[rac-(3S)-3-[3-amino-6-(2-hydroxyphenyl)pyridazin-4-yl]oxy-1-piperidyl]phenyl]piperazin-1-yl]pentanoyl]-4-piperidyl]methyl]triazol-4-yl]methoxy]isoindoline-1,3-dione] | 382 | 35
3 | Nc1nnc(-c2ccccc2O)cc1OC1CCCN(c2ccc(N3CCN(CC4CN(C(=O)CCCCn5cc(COc6cccc7c6C(=O)N(C6CCC(=O)NC6=O)C7=O)nn5)C4)CC3)cc2)C1 (racemic) [Example 137, 2-(2,6-dioxo-3-piperidyl)-4-[[1-[5-oxo-5-[3-[[4-[4-[rac-(3S)-3-[3-amino-6-(2-hydroxyphenyl)pyridazin-4-yl]oxy-1-piperidyl]phenyl]piperazin-1-yl]methyl]azetidin-1-yl]pentyl]triazol-4-yl]methoxy]isoindoline-1,3-dione] | 535 | 63
4 | Nc1nnc(-c2ccccc2O)cc1OC1CCCN(c2ccc(N3CCN(CCCCC(=O)N4CCC(n5cc(COc6cccc7c6C(=O)N(C6CCC(=O)NC6=O)C7=O)nn5)CC4)CC3)cc2)C1 (racemic) [Example 138, 2-(2,6-dioxo-3-piperidyl)-4-[[1-[1-[5-[4-[4-[rac-(3S)-3-[3-amino-6-(2-hydroxyphenyl)pyridazin-4-yl]oxy-1-piperidyl]phenyl]piperazin-1-yl]pentanoyl]-4-piperidyl]triazol-4-yl]methoxy]isoindoline-1,3-dione] | 678 | 42
5 | Nc1nnc(-c2ccccc2O)cc1O[C@H]1CCCN(c2ccc(N3CCN(CC4CCN(C(=O)CCCCn5cc(COc6cccc7c6C(=O)N(C6CCC(=O)NC6=O)C7=O)nn5)CC4)CC3)cc2)C1 (mixture of isomers) [Example 140, 2-(2,6-dioxo-3-piperidyl)-4-[[1-[5-oxo-5-[4-[[4-[4-[rac-(3S)-3-[3-amino-6-(2-hydroxyphenyl)pyridazin-4-yl]oxy-1-piperidyl]phenyl]piperazin-1-yl]methyl]-1-piperidyl]pentyl]triazol-4-yl]methoxy]isoindoline-1,3-dione] | 275 | 42
6 | Nc1nnc(-c2ccccc2O)cc1N1CC2CCC(C1)N2c1cccc(OCCN2CCN(C(=O)CNC(=O)C3CCN(c4ccc5c(c4)C(=O)N(C4CCC(=O)NC4=O)C5=O)CC3)CC2)c1 (racemic) [Example 141, rac-N-[2-[4-[2-[3-[3-[3-amino-6-(2-hydroxyphenyl)pyridazin-4-yl]-3,8-diazabicyclo[3.2.1]octan-8-yl]phenoxy]ethyl]piperazin-1-yl]-2-oxo-ethyl]-1-[2-(2,6-dioxo-3-piperidyl)-1,3-dioxo-isoindolin-5-yl]piperidine-4-carboxamide] | 9 | 19
7 | Nc1nnc(-c2ccccc2O)cc1N1CC2CCC(C1)N2c1cccc(OCCN2CCN(C(=O)C3CCN(c4ccc5c(c4)C(=O)N(C4CCC(=O)NC4=O)C5=O)CC3)CC2)c1 (racemic) [Example 142, rac-5-[4-[4-[2-[3-[3-[3-amino-6-(2-hydroxyphenyl)pyridazin-4-yl]-3,8-diazabicyclo[3.2.1]octan-8-yl]phenoxy]ethyl]piperazine-1-carbonyl]-1-piperidyl]-2-(2,6-dioxo-3-piperidyl)isoindoline-1,3-dione] | 2 | 14
8 | Nc1nnc(-c2ccccc2O)cc1N1CC2CCC(C1)N2c1cccc(OCCN2CCN(CCCC3CCN(c4ccc5c(c4)C(=O)N(C4CCC(=O)NC4=O)C5=O)CC3)CC2)c1 (racemic) [Example 143, rac-5-[4-[3-[4-[2-[3-[3-[3-amino-6-(2-hydroxyphenyl)pyridazin-4-yl]-3,8-diazabicyclo[3.2.1]octan-8-yl]phenoxy]ethyl]piperazin-1-yl]propyl]-1-piperidyl]-2-(2,6-dioxo-3-piperidyl)isoindoline-1,3-dione] | 2 | 8
9 | Nc1nnc(-c2ccccc2O)cc1N1CC2CCC(C1)N2c1ccccc1OCCN1CCN(c2ccc3c(c2)C(=O)N(C2CCC(=O)NC2=O)C3=O)CC1 (racemic) [Example 144, rac-5-[4-[2-[2-[3-[3-amino-6-(2-hydroxyphenyl)pyridazin-4-yl]-3,8-diazabicyclo[3.2.1]octan-8-yl]phenoxy]ethyl]piperazin-1-yl]-2-(2,6-dioxo-3-piperidyl)isoindoline-1,3-dione] | 797 | 75
10 | Nc1nnc(-c2ccccc2O)cc1N1CC2CCC(C1)N2c1cccc(CN2CCN(C(=O)CN3CCC(c4ccc(OC5CCC(=O)NC5=O)cc4)CC3)CC2)c1 (racemic) [Example 148, rac-3-[4-[1-[2-[4-[[3-[3-[3-Amino-6-(2-hydroxyphenyl)pyridazin-4-yl]-3,8-diazabicyclo[3.2.1]octan-8-yl]phenyl]methyl]piperazin-1-yl]-2-oxo-ethyl]-4-piperidyl]phenoxy]piperidine-2,6-dione] | 25 | 33
11 | Nc1nnc(-c2ccccc2O)cc1N1CC2CCC(C1)N2c1cccc(CN2CCN(C(=O)CN3CCC(c4ccc(NC5CCC(=O)NC5=O)cc4)CC3)CC2)c1 (racemic) [Example 149, rac-3-[4-[1-[2-[4-[[3-[3-[3-Amino-6-(2-hydroxyphenyl)pyridazin-4-yl]-3,8-diazabicyclo[3.2.1]octan-8-yl]phenyl]methyl]piperazin-1-yl]-2-oxo-ethyl]-4-piperidyl]anilino]piperidine-2,6-dione] | 18 | 40
12 | Nc1nnc(-c2ccccc2O)cc1N1CC(Oc2cccc(N3CCN(C(=O)C4CCN(c5ccc6c(c5)C(=O)N(C5CCC(=O)NC5=O)C6=O)CC4)CC3)c2)C1 (racemic) [Example 152, rac-5-[4-[4-[3-[1-[3-amino-6-(2-hydroxyphenyl)pyridazin-4-yl]azetidin-3-yl]oxyphenyl]piperazine-1-carbonyl]-1-piperidyl]-2-(2,6-dioxo-3-piperidyl)isoindoline-1,3-dione] | 5 | 42
13 | Nc1nnc(-c2ccccc2O)cc1N1CC(Oc2cccc(N3CCN(C(=O)CCC4CCN(c5ccc6c(c5)C(=O)N(C5CCC(=O)NC5=O)C6=O)CC4)CC3)c2)C1 (racemic) [Example 153, rac-5-[4-[3-[4-[3-[1-[3-amino-6-(2-hydroxyphenyl)pyridazin-4-yl]azetidin-3-yl]oxyphenyl]piperazin-1-yl]-3-oxo-propyl]-1-piperidyl]-2-(2,6-dioxo-3-piperidyl)isoindoline-1,3-dione] | 19 | 21
